In patent publication US20070060549A1, “COMBINATION THERAPIES EMPLOYING ACE INHIBITORS AND USES THEREOF FOR THE TREATMENT OF DIABETIC DISORDERS” (priority 2004, published 2007):

Legend:
[1] = system: hypertensive patients with type 2 diabetes; details: 8 weeks
Protocol: Summary of Study Design—The phase II study was a randomized, parallel group, cross-over, double-blinded to study medication, placebo-controlled comparison of P5P BID at total daily doses of 100, 300 or 1000 mg alone and in combination with 20 mg lisinopril given once daily (QD). In order to protect against antihypertensive and metabolic carry-over effects of lisinopril, 160 patients were randomized in 2 different treatment sequences. Patients randomized in the first treatment sequence received an 8-week treatment with lisinopril 20 mg and P5P (or placebo) and then an 8-week treatment with P5P alone (or placebo). […]
Mean trough sitting and standing BP were measured at each visit. […]
Ambulatory blood pressure (ABP) was measured using a SpaceLabs Medical ABPM Monitor Model 90207 (SpaceLabs Medical Inc., Redmond, Wash.). […] Following the initiation of two manual readings, a third manual reading was initiated and began the 24-hour monitoring period. […] A manual reading was initiated at the end of the 24-hour period to ensure that there was at least one data point in the last hour of the 24-hour period. Subjects were instructed to initiate a manual reading should they be late for their scheduled clinic appointment to ensure that a reading in the last hour of the 24-hour period was not missed. On completion of the readings, the ABPM device was removed from the subject. […]

patients [2] = experiment: Phase I multi-dose tolerance study of P5P; type: in vivo, human
dogs [3] = experiment: 13-week oral toxicity in dogs; type: in vivo; details: 13-week dog study
Protocol: (§1) As a prelude to human clinical studies, the toxicology of P5P was assessed by conventional means using two animal species, rats and dogs. […] Long term studies, 13-week oral toxicity in dogs, and 26-week oral toxicity in rats, were completed.

[4] = system: diabetic hypertensive patients; experiment: Phase II clinical study of P5P: glycated hemoglobin (HbA1c); type: in vivo, human; details: patients with clinically elevated HbA1c at start; 250, 500, 750 mg P5P two weeks each, then 4-week washout
Protocol: In a phase II clinical study, conducted in accordance with generally accepted clinical practice standards, diabetic hypertensive patients were treated with P5P. Glucose control was determined by measuring glycated hemoglobin levels (HbA1c). Four weeks prior to treatment, patients ceased all antihypertensive therapy. Following the washout period, baseline HbA1c measurements were taken. Patients were than treated with 250 mg, 500 mg, and 750 mg of P5P for two weeks at each dosage. P5P treatment was then discontinued for 4 weeks. Following the washout period, HbA1c measurements were taken.

[5] = Phase I pharmacokinetics of P5P; type: in vivo, human; details: Phase I dose levels; small numbers of subjects, large inter-subject variability
Protocol: (§2) In a Phase I single dose tolerance study, conducted in accordance with generally accepted clinical practice standards, groups of six patients were tested at 15 mg/kg, 30 mg/kg, and 60 mg/kg (enteric coated tablets). […] Four subjects in the 60 mg/kg dose group reported a total of 10 adverse events including diarrhea, bradycardia, bubbly stomach, flatulence, and headaches that were mild in severity.

patients [6] = experiment: Phase I single dose tolerance study of P5P; type: in vivo, human
Protocol: as §2

dogs [7] = experiment: Acute toxicity evaluation of P5P in dogs; type: in vivo, dog; details: doses up to 100 mg/kg
Protocol: as §1

rats [8] = experiment: 26-week oral toxicity in rats; type: in vivo; details: 26-week rat study
Protocol: as §1

rat = experiment: Acute toxicity evaluation of P5P in the rat; type: in vivo; details: doses up to 5 g/kg
Protocol: as §1

rats [9] = experiment: 14-day oral administration of P5P to rats; type: in vivo, rat; details: orally 50 mg/kg for 14 days
Protocol: as §1

SMILES | reduction in MDASBP from baseline ([1]; lisinopril 20 mg/dose and placebo, p=0.002) | reduction in MDADBP from baseline ([1]; lisinopril 20 mg/dose plus placebo, p=0.005) | tolerance (patients [2]; multi-dose 30 mg/kg, one patient withdrew due to vomiting and diarrhea) | tolerance (patients [2]; multi-dose 60 mg/kg) | drug related toxicities (dogs [3]; 10 and 25 mg/kg) | recovery (dogs [3]; 50-60 mg/kg group, recovery phase) | findings in high dose group (dogs [3]; 50-60 mg/kg, all other findings mild to moderate) | reduction in HbA1c levels as compared to baseline [4] | dose-linearity of pharmacokinetics [5] | adverse events (patients [6]; single dose 15 mg/kg, enteric coated tablets, six patients) | adverse events (patients [6]; single dose 30 mg/kg, enteric coated tablets, six patients) | subjects reporting adverse events (patients [6]; single dose 60 mg/kg, enteric coated tablets, six patients) | total adverse events (patients [6]; single dose 60 mg/kg, diarrhea, bradycardia, bubbly stomach, flatulence, headaches, mild in severity) | acute toxicity (dogs [7]) | findings of toxicological significance (rats [8]; any dose level (50, 100/175, 175/325 mg/kg)) | findings in high dose group (rats [8]; high dose group) | acute toxicity (rat) | signs of toxicity (rats [9])
NCCCC[C@H](N[C@@H](CCc1ccccc1)C(=O)O)C(=O)N1CCC[C@H]1C(=O)O [lisinopril] | 7.5 mmHg | 4.1 mmHg | – | – | – | – | – | – | – | – | – | – | – | – | – | – | – | –
Cc1ncc(COP(=O)(O)O)c(C=O)c1O [P5P, pyridoxal-5′-phosphate] | – | – | five of six patients treated with 30 mg/kg P5P tolerated the medication well | all 6 treated patients experiencing a variety of mild gastrointestinal symptoms | no drug related toxicities were observed | recovered almost completely | anorexia and body weight loss | 5.4% | did not demonstrate dose-linearity | No adverse events were reported | One subject in the 30 mg/kg dose group experienced events of dizziness and sleepiness | Four | 10 | no significant toxicity | No findings of toxicological significance | reversible reduction in body weight gain and increased incidence of stomach microulcers | no significant toxicity | no signs of toxicity
